Source: patent US7968744B2, “Physiological coolants based on lactoyl esters of menthyl lactate” (Renessenz, LLC, priority 2007, dated 2011)

System: mouth (panel of three flavorists)
Test: Sensory evaluation of cooling strength by a panel of three flavorists
Type: in vivo
Details: for Cooling strength score of reference standards: reference standards on the scale of 1 to 10, 10 being the strongest
Method: The sensory properties of crystalline MLL and liquid products that contain MLL (from Examples 1-5, above) are evaluated by a panel of three flavorists. The standard method involves holding an aqueous solution containing 20 ppm of coolant in the mouth for 30 seconds, then spitting it out and observing and quantifying the cooling effect when compared with a set of reference standards. Based on their cooling strength, the samples are scored on a scale of 1 to 10, with 10 being the strongest. Samples used as reference standards are to monomenthyl glutarate (3.5 on this scale), l-menthyl lactate (4.5) and N-ethyl-3-p-menthane carboxamide, i.e., WS-3 (10). Several coolant “cocktails,” i.e., liquid coolant-mixtures, are prepared, and their sensory properties are evaluated as in Example 6. The compositions and results appear in Table 2.

| SMILES | Score (cooling strength) (aqueous solution containing 20 ppm of coolant held in the mouth for 30 seconds, scale of 1 to 10, 10 being the strongest, Table 1) | Cooling strength compared with reference coolants (in words) (sensory evaluation) | Cooling strength score of reference standards |
| --- | --- | --- | --- |
| CC(C)[C@@H]1CC[C@@H](C)C[C@H]1OC(=O)[C@H](C)OC(=O)[C@H](C)O [Example 6, l-menthyl L-lactoyl-L-lactate] | 4.0 | intermediate between that of l-menthyl lactate and monomenthyl glutarate |  |
| CC(C)[C@@H]1CC[C@@H](C)C[C@H]1OC(=O)CCCC(=O)O [monomenthyl glutarate] |  |  | 3.5 |
| CC(C)[C@@H]1CC[C@@H](C)C[C@H]1OC(=O)[C@H](C)O [l-menthyl lactate] |  |  | 4.5 |
| CCNC(=O)C1CC(C)CCC1C(C)C (centres unmarked) [WS-3, N-ethyl-3-p-menthane carboxamide] |  |  | 10 |
